One experiment addresses human GLP-1 receptor (Homo sapiens, UniProt P43220). The experiment in a line: Functional GLP-1 receptor assay, in vitro potency (CRE luciferase; whole cells). The format is cell-based. The conditions noted are these: BHK cells expressing human GLP-1 receptor.
Experiment [1] has as its system Mouse monocyte/macrophage cell line, RAW 264.7. The experiment in a line: Cholesterol efflux assay (3H-cholesterol, macrophage cell line). The format is cell-based. As to conditions: RAW 264.7, 4 hrs incubation, 0.1% human serum albumin, ABCA1-mediated efflux.
[2] abbreviates: 0% HSA, read-out: GLP1R CRE luc 0% HSA EC50 Mean Value.
Setting [3] is: GLP1R CRE luc 1% HSA EC50 Mean Value, 1% HSA.

Where two headings read alike, the source gives them in different places. Where a SMILES comes first, the peptide text is derived from it. [ ]: non-standard residue; d: D form. Aib = CC(C)(N)C(=O)O

Sequence of human GLP-1 receptor (P43220 24-463): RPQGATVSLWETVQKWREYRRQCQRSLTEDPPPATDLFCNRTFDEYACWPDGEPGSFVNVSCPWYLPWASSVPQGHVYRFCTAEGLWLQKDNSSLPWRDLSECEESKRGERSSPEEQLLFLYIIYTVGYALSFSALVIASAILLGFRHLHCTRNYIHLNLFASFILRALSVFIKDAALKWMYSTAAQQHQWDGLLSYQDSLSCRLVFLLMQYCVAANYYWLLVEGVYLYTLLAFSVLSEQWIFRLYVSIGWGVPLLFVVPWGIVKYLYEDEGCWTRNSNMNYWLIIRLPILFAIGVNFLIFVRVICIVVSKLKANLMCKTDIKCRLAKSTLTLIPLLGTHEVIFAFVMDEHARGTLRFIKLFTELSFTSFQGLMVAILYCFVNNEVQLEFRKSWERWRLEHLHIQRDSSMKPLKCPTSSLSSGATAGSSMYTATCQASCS

One may read the EC50 as the concentration at which the effect is half-maximal. As to `CC[C@H](C)[C@H](NC(=O)[C@H](Cc1ccccc1)NC(=O)[C@H](CCC(=O)O)NC(=O)[C@H](CCCCN)NC(=O)[C@@H](NC(=O)[C@H](C)NC(=O)[C@H](CCC(=O)O)NC(=O)CNC(=O)[C@H](CCC(=O)O)NC(=O)[C@H](CC(C)C)NC(=O)[C@H](Cc1ccc(O)cc1)NC(=O)[C@H](CO)NC(=O)[C@H](CO)NC(=O)[C@@H](NC(=O)[C@H](CC(=O)O)NC(=O)[C@H](CO)NC(=O)[C@@H](NC(=O)[C@H](Cc1ccccc1)NC(=O)[C@@H](NC(=O)CNC(=O)[C@H](CCC(=O)O)NC(=O)C(C)(C)NC(=O)[C@@H](N)Cc1c[nH]cn1)[C@@H](C)O)[C@@H](C)O)C(C)C)C(C)C)C(=O)N[C@@H](C)C(=O)N[C@@H](Cc1c[nH]c2ccccc12)C(=O)N[C@@H](CC(C)C)C(=O)N[C@H](C(=O)N[C@@H](CCC(=O)O)C(=O)N[C@@H](CCCCN)C(=O)N[C@H](C(=O)N[C@@H](CCCCN)C(=O)N[C@@H](CCC(=O)O)C(=O)NCC(=O)N[C@@H](CC(C)C)C(N)=O)C(C)C)C(C)C` [Compound 117, [Aib8,Glu23,Val25,Glu34,Lys35,Val36,Lys37]-GLP-1-(7-37)-peptidyl-Glu-Gly-Leu amide] (H-H[Aib]EGTFTSDVSSYLEGEAVKEFIAWLVEKVKEGL-NH2), on human GLP-1 receptor (setting [2]), the EC50 stood at 0.011 nM. Also, the “4 h Cholesterol Efflux Emax” value in experiment [1] worked out at 114%.

For `CC[C@H](C)[C@H](NC(=O)[C@H](Cc1ccccc1)NC(=O)[C@H](CCC(=O)O)NC(=O)[C@H](CCCCN)NC(=O)[C@@H](NC(=O)[C@H](C)NC(=O)[C@H](CCC(=O)O)NC(=O)CNC(=O)[C@H](CCC(=O)O)NC(=O)[C@H](CC(C)C)NC(=O)[C@H](Cc1ccc(O)cc1)NC(=O)[C@H](CO)NC(=O)[C@H](CO)NC(=O)[C@@H](NC(=O)[C@H](CC(=O)O)NC(=O)[C@H](CO)NC(=O)[C@@H](NC(=O)[C@H](Cc1ccccc1)NC(=O)[C@@H](NC(=O)CNC(=O)[C@H](CCC(=O)O)NC(=O)C(C)(C)NC(=O)[C@@H](N)Cc1c[nH]cn1)[C@@H](C)O)[C@@H](C)O)C(C)C)C(C)C)C(=O)N[C@@H](C)C(=O)N[C@@H](Cc1c[nH]c2ccccc12)C(=O)N[C@@H](CC(C)C)C(=O)N[C@H](C(=O)N[C@@H](CCC(=O)O)C(=O)NCC(=O)NC(C)(C)C(=O)N[C@@H](CCCCN)C(=O)N[C@@H](CCC(=O)O)C(=O)N[C@@H](Cc1ccccc1)C(=O)N[C@@H](CC(C)C)C(N)=O)C(C)C` [Compound 30, [Aib8,Glu23,Val25,Glu34,Aib36,Lys37]-GLP-1-(7-37)-peptidyl-Glu-Phe-Leu amide] (H-H[Aib]EGTFTSDVSSYLEGEAVKEFIAWLVEG[Aib]KEFL-NH2), the EC50 on human GLP-1 receptor (setting [2]) was 0.034 nM; on human GLP-1 receptor (setting [3]) it was 0.013 nM. Moreover, the “4 h Cholesterol Efflux Emax” value in experiment [1] was found to be 75%.

At human GLP-1 receptor (setting [3]), `CC[C@H](C)[C@H](NC(=O)[C@H](Cc1ccccc1)NC(=O)[C@H](CCC(=O)O)NC(=O)[C@H](CCCCN)NC(=O)[C@@H](NC(=O)[C@H](C)NC(=O)[C@H](CCC(=O)O)NC(=O)CNC(=O)[C@H](CCC(=O)O)NC(=O)[C@H](CC(C)C)NC(=O)[C@H](Cc1ccc(O)cc1)NC(=O)[C@H](CO)NC(=O)[C@H](CO)NC(=O)[C@@H](NC(=O)[C@H](CC(=O)O)NC(=O)[C@H](CO)NC(=O)[C@@H](NC(=O)[C@H](Cc1ccccc1)NC(=O)[C@@H](NC(=O)CNC(=O)[C@H](CCC(=O)O)NC(=O)C(C)(C)NC(=O)[C@@H](N)Cc1c[nH]cn1)[C@@H](C)O)[C@@H](C)O)C(C)C)C(C)C)C(=O)N[C@@H](C)C(=O)N[C@@H](Cc1c[nH]c2ccccc12)C(=O)N[C@@H](CC(C)C)C(=O)N[C@@H](CC(C)C)C(=O)N[C@@H](CCC(=O)O)C(=O)N[C@@H](CCCCN)C(=O)NC(C)(C)C(=O)N[C@@H](CCCCN)C(=O)N[C@@H](CCC(=O)O)C(=O)N[C@@H](Cc1ccccc1)C(=O)N[C@@H](CC(C)C)C(N)=O` [Compound 84, [Aib8,Glu23,Val25,Leu33,Glu34,Lys35,Aib36,Lys37]-GLP-1-(7-37)-peptidyl-Glu-Phe-Leu amide] (H-H[Aib]EGTFTSDVSSYLEGEAVKEFIAWLLEK[Aib]KEFL-NH2) gave an EC50 of 0.076 nM. Besides, the “4 h Cholesterol Efflux Emax” value in experiment [1] is listed as 94%.

With “H-HAEGTFTSDVSSYLEGEAVREFIAWLVERVREFLEK-OH [Compound 138]”, the EC50 at human GLP-1 receptor (setting [2]) came out at 0.041 nM; at human GLP-1 receptor (setting [3]), 0.017 nM. The “4 h Cholesterol Efflux Emax” value in experiment [1] turned out to be 96%.

As to `CC[C@H](C)[C@H](NC(=O)[C@H](Cc1ccccc1)NC(=O)[C@H](CCC(=O)O)NC(=O)[C@H](CCCCN)NC(=O)[C@@H](NC(=O)[C@H](C)NC(=O)[C@H](CCC(=O)O)NC(=O)CNC(=O)[C@H](CCC(=O)O)NC(=O)[C@H](CC(C)C)NC(=O)[C@H](Cc1ccc(O)cc1)NC(=O)[C@H](CO)NC(=O)[C@H](CO)NC(=O)[C@@H](NC(=O)[C@H](CC(=O)O)NC(=O)[C@H](CO)NC(=O)[C@@H](NC(=O)[C@H](Cc1ccccc1)NC(=O)[C@@H](NC(=O)CNC(=O)[C@H](CCC(=O)O)NC(=O)C(C)(C)NC(=O)[C@@H](N)Cc1c[nH]cn1)[C@@H](C)O)[C@@H](C)O)C(C)C)C(C)C)C(=O)N[C@@H](CCC(N)=O)C(=O)N[C@@H](Cc1c[nH]c2ccccc12)C(=O)N[C@@H](CC(C)C)C(=O)N[C@H](C(=O)N[C@@H](CCC(=O)O)C(=O)N[C@@H](CCCCN)C(=O)NC(C)(C)C(=O)N[C@@H](CCCCN)C(=O)N[C@@H](CCC(=O)O)C(=O)N[C@@H](Cc1ccccc1)C(=O)N[C@@H](CC(C)C)C(N)=O)C(C)C` [Compound 83, [Aib8,Glu23,Val25,Gln30,Glu34,Lys35,Aib36,Lys37]-GLP-1-(7-37)-peptidyl-Glu-Phe-Leu amide] (H-H[Aib]EGTFTSDVSSYLEGEAVKEFIQWLVEK[Aib]KEFL-NH2), a half-maximal effect at human GLP-1 receptor (setting [3]) (EC50) was put at 0.042 nM. Also, in experiment [1], the “4 h Cholesterol Efflux Emax” value is given as 97%.

At human GLP-1 receptor (setting [3]), `CC[C@H](C)[C@H](NC(=O)[C@H](Cc1ccccc1)NC(=O)[C@H](CCC(=O)O)NC(=O)[C@H](CCC(N)=O)NC(=O)[C@@H](NC(=O)[C@H](C)NC(=O)[C@H](CCC(=O)O)NC(=O)CNC(=O)[C@H](CCC(=O)O)NC(=O)[C@H](CC(C)C)NC(=O)[C@H](Cc1ccc(O)cc1)NC(=O)[C@H](CO)NC(=O)[C@H](CO)NC(=O)[C@@H](NC(=O)[C@H](CC(=O)O)NC(=O)[C@H](CO)NC(=O)[C@@H](NC(=O)[C@H](Cc1ccccc1)NC(=O)[C@@H](NC(=O)CNC(=O)[C@H](CCC(=O)O)NC(=O)C(C)(C)NC(=O)[C@@H](N)Cc1c[nH]cn1)[C@@H](C)O)[C@@H](C)O)C(C)C)C(C)C)C(=O)N[C@@H](C)C(=O)N[C@@H](Cc1c[nH]c2ccccc12)C(=O)N[C@@H](CC(C)C)C(=O)N[C@H](C(=O)N[C@@H](CCC(=O)O)C(=O)N[C@@H](CCC(N)=O)C(=O)NC(C)(C)C(=O)N[C@@H](CCC(N)=O)C(=O)N[C@@H](CCC(=O)O)C(=O)N[C@@H](Cc1ccccc1)C(=O)N[C@@H](CC(C)C)C(N)=O)C(C)C` [Compound 95] (H-H[Aib]EGTFTSDVSSYLEGEAVQEFIAWLVEQ[Aib]QEFL-NH2) yielded an EC50 of 0.04 nM. The “4 h Cholesterol Efflux Emax” value in experiment [1] turned out to be 59%.

On human GLP-1 receptor (setting [3]), `CC[C@H](C)[C@H](NC(=O)[C@H](Cc1ccccc1)NC(=O)[C@H](CCC(=O)O)NC(=O)[C@H](CCCCN)NC(=O)[C@@H](NC(=O)[C@H](C)NC(=O)[C@H](CCC(=O)O)NC(=O)CNC(=O)[C@H](CCC(=O)O)NC(=O)[C@H](CC(C)C)NC(=O)[C@H](Cc1ccc(O)cc1)NC(=O)[C@H](CO)NC(=O)[C@H](CO)NC(=O)[C@@H](NC(=O)[C@H](CC(=O)O)NC(=O)[C@H](CO)NC(=O)[C@@H](NC(=O)[C@H](Cc1ccccc1)NC(=O)[C@@H](NC(=O)CNC(=O)[C@H](CCC(=O)O)NC(=O)C(C)(C)NC(=O)[C@@H](N)Cc1c[nH]cn1)[C@@H](C)O)[C@@H](C)O)C(C)C)C(C)C)C(=O)N[C@@H](C)C(=O)N[C@@H](Cc1c[nH]c2ccccc12)C(=O)N[C@@H](CC(C)C)C(=O)N[C@H](C(=O)N[C@@H](CCC(=O)O)C(=O)N[C@@H](CCCCN)C(=O)NC(C)(C)C(=O)N[C@@H](CCCCN)C(=O)N[C@@H](Cc1c[nH]cn1)C(=O)N[C@@H](Cc1ccccc1)C(=O)N[C@@H](CC(C)C)C(N)=O)C(C)C` [Compound 31, [Aib8,Glu23,Val25,Glu34,Lys35,Aib36,Lys37]-GLP-1-(7-37)-peptidyl-His-Phe-Leu amide] (H-H[Aib]EGTFTSDVSSYLEGEAVKEFIAWLVEK[Aib]KHFL-NH2) showed an EC50 of 0.062 nM. In addition, the “4 h Cholesterol Efflux Emax” value in experiment [1] was 84%.

On human GLP-1 receptor (setting [3]), `CC[C@H](C)[C@H](NC(=O)[C@H](Cc1ccccc1)NC(=O)[C@H](CCC(=O)O)NC(=O)[C@H](CCC(N)=O)NC(=O)[C@@H](NC(=O)[C@H](C)NC(=O)[C@H](CCC(=O)O)NC(=O)CNC(=O)[C@H](CCC(=O)O)NC(=O)[C@H](CC(C)C)NC(=O)[C@H](Cc1ccc(O)cc1)NC(=O)[C@H](CO)NC(=O)[C@H](CO)NC(=O)[C@@H](NC(=O)[C@H](CC(=O)O)NC(=O)[C@H](CO)NC(=O)[C@@H](NC(=O)[C@H](Cc1ccccc1)NC(=O)[C@@H](NC(=O)CNC(=O)[C@H](CCC(=O)O)NC(=O)C(C)(C)NC(=O)[C@@H](N)Cc1c[nH]cn1)[C@@H](C)O)[C@@H](C)O)C(C)C)C(C)C)C(=O)N[C@@H](C)C(=O)N[C@@H](Cc1c[nH]c2ccccc12)C(=O)N[C@@H](CC(C)C)C(=O)N[C@H](C(=O)N[C@@H](CCC(=O)O)C(=O)N[C@@H](C)C(=O)N[C@H](C(=O)N[C@@H](C)C(=O)N[C@@H](CCC(=O)O)C(=O)N[C@@H](Cc1ccccc1)C(=O)N[C@@H](CC(C)C)C(N)=O)C(C)C)C(C)C` [Compound 94] (H-H[Aib]EGTFTSDVSSYLEGEAVQEFIAWLVEAVAEFL-NH2) registered an EC50 of 0.273 nM. The “4 h Cholesterol Efflux Emax” value in experiment [1] amounted to 74%.

The record behind these values is patent US20150344540A1, “NOVEL GLP-1 RECEPTOR AGONISTS WITH CHOLESTEROL EFFLUX ACTIVITY” (NOVO NORDISK A/S, priority 2012, published 2015).
